According to patent EP4813463A2, “TYK2 INHIBITORS AND COMPOSITIONS AND METHODS THEREOF” (Lynk Pharmaceuticals Co. Ltd., priority 2023, dated 2024):

How the values were obtained:
Caco-2 cell lines = experiment: Caco-2 cell permeability; assay type: in vitro ADME; settings: Caco-2; result in words
[1] = Brain pharmacokinetic studies in rats; assay type: in vivo, Sprague-Dawley rats
[2] = Brain pharmacokinetic studies in dogs; assay type: in vivo, Beagle dogs; settings: for AUC: AUC0-4h
Protocol: Pharmacokinetic profiles of test articles were evaluated in Beagle dogs. Different kinds of formulations were designed to ensure test articles fully dissolved and wouldn't precipitate in 1:10 SGF or FaSSIF dilution. The animal was restrained manually at the designated time points, approximately 500 µL of blood sample was collected via cephalic vein into K2EDTA tubes. The blood samples were maintained in wet ice first and centrifuged to obtain plasma (2000g, 4°C, 5 min) within 15 minutes post sampling. The animal was euthanized with pure […] inhalation. Shave the hair on the back of head and neck, and clean the skin of the area with iodine and 75% ethanol. Inject about 4-5 L saline from carotid artery for perfusion. Brain was collected after the perfusion fluid (saline) was gradually clarified. Dry the tissue on filtrate paper on ice, and then weigh the brain tissue and store at -70°C for later analysis. […] Table 15. Systemic Pharmacokinetic Parameters in Beagle Dogs

COC(=O)c1cnc(NC(=O)C2CC2)cc1Nc1nn(C)c2ccc([C@H](OC)C(F)(F)F)c(OC)c12 [Example 45B, Methyl (S)-6-(cyclopropanecarboxamido)-4-((4-methoxy-1-methyl-5-(2,2,2-trifluoro-1-methoxyethyl)-1H-indazol-3-yl)amino)nicotinate]
efflux ratio compared with the amide compounds 21,23,25,33,49A and BMS986165 (Caco-2 cell lines): lower efflux ratio numbers
half-life ([1]; Sprague-Dawley, rat, brain, rats, iv, 3 mg/kg, solution): 2.23 h
Kp ([1]; Sprague-Dawley, rat, brain, rats, iv, 3 mg/kg, solution, read-out: Brain AUC/Systemic AUC): 0.96
half-life ([1]; Sprague-Dawley, rat, systemic (plasma), rats, iv, 3 mg/kg, solution): 2.28 h
AUC ([1]; Sprague-Dawley, rat, systemic (plasma), rats, iv, 3 mg/kg, solution, read-out: AUC): 1280 ng·h/mL
AUC ([1]; brain, rats, iv, 3 mg/kg, solution): 1235 ng·h/g
brain exposure in Rats ([1]; result in words): good brain exposure
AUC ([2]; brain, Beagle dogs, iv, 2 mg/kg, solution): 1963 ng·h/g
Kp ([2]; dog, brain, Beagle dogs, iv, 2 mg/kg, solution, read-out: Brain AUC/Systemic AUC): 1.12
AUC ([2]; dog, systemic (plasma), Beagle dogs, iv, 2 mg/kg, solution, read-out: AUC): 1760 ng·h/mL
brain exposure in Dogs ([2]; result in words): good brain exposure
